According to patent US20230348401A1, “Inhibitors of Glucose-6-phosphate Dehydrogenase and Uses Thereof” (The Trustees of Princeton University, priority 2020, published 2023):

Columns and labels:
[1] = system: mouse CD8+ and CD4+ T cells; assay: Metabolites and 1-2H-glucose tracing in active T cells; format: cell-based
Method: Cells were cultured in complete RPMI media (RPMI 1640 supplemented with 10% FBS, 100 U/ml penicillin, 100 µg/ml streptomycin, and 50 µM 2-mercaptoethanol). Naïve T cells were either rested in complete RPMI media supplemented with recombinant IL-7 (50U/mL) or stimulated for 48 hours with plate-bound anti-CD3 (10 µg/ml) and anti-CD28 (5 µg/ml) in complete RPMI media supplemented with 100 µM alanine and recombinant IL-2 (100 U/mL). Activated T cells were maintained in complete RPMI media supplemented with recombinant IL-2 (100 U/mL). All experiments on “active” T cells were performed at day 4-5 post-activation
For all experiments involving stable isotope tracers (e.g., 1-^2H-glucose), the isotope tracer nutrient was substituted for unlabeled nutrient at the same concentration normally found in the base media for a given cell type (e.g., DMEM for HCT116, RPMI for T cells, etc.). In addition, dialyzed FBS was used as a supplement in place of FBS.
For suspension cells (including T cells and red blood cells), 2×10^6 cells were seeded in 1 mL of media in 12-well plates and incubated with appropriate media, which included isotope tracers and/or chemical inhibitors and/or cytokines, as described. For all experiments involving small molecule agents, DMSO concentrations were <0.2%. After 2 hours, cell suspensions were transferred to 1.5 mL tubes and pelleted (30 seconds, 6000 rpm, room temperature). Media was removed by aspiration and metabolome extraction was performed by the addition of 75 µL of ice cold solvent (40:40:20 ACN:MeOH:H2O + 0.5%FA). After a 5-minute incubation on ice, acid was neutralized by the addition of NH4HCO3. After centrifugation (15 minutes, 16000 rpm, 4° C.), the resulting supernatant was transferred to a clean tube, frozen on dry ice and kept at -80° C. until LC-MS analysis.

active CD8+ T cells = assay: Absolute oxPPP flux by 14CO2 emission; format: cell-based, mouse; settings: 10 uM
Method: Glucose oxidation flux through oxPPP was determined from difference in the rate of ^14CO2 released from [1-^14C]-glucose and [6-^14C]-glucose, as previously described with some modification. RPMI 1640 media without sodium bicarbonate was supplemented with 0.74 g/L of NaHCO3, 2.5 mM HEPES pH 7.4, 10% dFBS, and 1% of either 1-^14C-glucose or 6-^14C-glucose. Three million primary mouse naïve (rested in IL-7) or active CD8+ T cells (in the presence of IL2 and 0.1% DMSO or 10 uM G6PDi-1) were incubated for 4 hours in a sealed 12.5 cm^2 flask. To facilitate the collection of ^14CO2, 100 µL of a 10 M KOH solution was introduced into the sealed flask using a center well for incubation flask (8823200000, DWK Life Sciences). The assay was stopped by injection of 1 mL 1 M HCL, and the KOH solution then transferred to scintillation vials containing 10 mL scintillation solution for counting. The signal was corrected for the percentage of radioactive tracer in the medium. OxPPP flux is calculated as follows: […]

CD8+ and CD4+ T cells = assay: Intracellular ROS (CellROX green); format: cell-based, mouse; settings: two hours
Method: For measuring intracellular ROS levels, cells were incubated for 2 hours in the presence of increasing concentrations of G6PDi-1 and then stained for ROS and viability using CellROX Green Flow Cytometry Assay Kit following manufacturer instructions. In some experiments, n-acetyl cysteine (1 mM), galactose oxidase (0.045 U/mL) + galactose (500 µM), or potassium superoxide (0.5 µg/mL) were added to the culture media at the same time the drug and/or PMA and ionomycin were added. All flow cytometry was analyzed with an LSR II (BDbiosciences) using standard filter sets and FCS express 6 flow cytometry software (De Novo Software).

[2] = system: bone marrow derived macrophages; assay: Intracellular cytokines in bone marrow-derived macrophages; format: cell-based, mouse
Method: Mouse bone marrow monocyte/macrophage progenitors were isolated from femur and tibia and cultured in BMM media (DMEM supplemented with 10% FBS, 20% L929-conditioned media, 100 U/ml penicillin, and 100 µg/ml streptomycin). Expression of CD11b and F4/80 was checked by flow cytometry after 6 days in culture. Mature macrophages were either maintained in BMM media (M0 macrophages) or stimulated overnight with LPS (100 ng/mL) + IFNγ (20 ng/mL) for M1 activation or IL-4 (20 ng/mL) for M2 activation.
To analyze intracellular cytokines, active T cells were re-stimulated with PMA (20 ng/ml) and ionomycin (1 µg/ml) in the presence of GolgiStop and increasing concentrations of G6PDi-1. After a 6-hour incubation period, cells were collected, washed with PBS and stained with the viability dye Live/Dead Aqua. Cells were then washed with staining buffer and stained for surface markers: CD4 (APC-Cy7, clone RM4-5,), CD8a (PerCP-Cy5.5, clone 53-6.7). Cells were then fixed and permeabilized and stained for intracellular cytokines: IFN-γ (FITC, clone XMG1.2), TNFα (PE-Cyanine7, clone MP6-XT22) and IL-2 (PE, clone JES6-5H4). To analyze intracellular cytokines, mature macrophages were stimulated with LPS (100 ng/mL) + IFNγ (20 ng/mL) in the presence of GolgiStop and increasing concentrations of G6PDi-1. […]

G6PD = G6PD (Homo sapiens, UniProt P11413); assay: G6PD enzymatic activity by LC-MS (6-pg production); format: biochemical; set-up: Partially truncated human G6PD (residues 28-515, Uniprot ID P11413); His6 with thrombin cleavage site (N, cleaved yes); made in house; host or cells: Escherichia coli BL21(DE3)pLysS; settings: orthogonal LC-MS assay
Sequence of G6PD (P11413 28-515): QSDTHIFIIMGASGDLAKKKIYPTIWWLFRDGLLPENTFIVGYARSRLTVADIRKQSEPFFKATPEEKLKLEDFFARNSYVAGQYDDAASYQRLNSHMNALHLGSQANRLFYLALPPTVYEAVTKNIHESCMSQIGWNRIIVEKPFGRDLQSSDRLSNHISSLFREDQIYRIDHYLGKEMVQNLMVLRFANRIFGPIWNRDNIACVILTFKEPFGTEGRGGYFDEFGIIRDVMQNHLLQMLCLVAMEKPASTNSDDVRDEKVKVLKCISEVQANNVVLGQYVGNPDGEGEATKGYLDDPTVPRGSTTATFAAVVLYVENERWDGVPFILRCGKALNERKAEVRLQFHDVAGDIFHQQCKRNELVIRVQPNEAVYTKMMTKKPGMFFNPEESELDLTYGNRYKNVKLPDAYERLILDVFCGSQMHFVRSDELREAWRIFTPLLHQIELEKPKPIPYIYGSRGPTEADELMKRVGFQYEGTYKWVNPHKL
Method: Aliquots of reaction mixture were collected at indicated time points and rapidly quenched by diluting (1:5) into methanol precooled on dry ice. The mixtures were centrifuged at 13,000 rcf for 20 minutes at 4° C., and the resulting supernatants were diluted (1:20) into 40:40:20 methanol/ acetonitrile/ water and analyzed by LC-MS.

Compound: N#Cc1cc(Nc2ncc3c(n2)CCCCC3=O)cs1 [Compound 2, 4-([5-oxo-6H,7H,8H,9H-cyclohepta[d]pyrimidin-2-yl]amino)thiophene-2-carbonitrile]
- NADPH and 6-pg levels ([1]; 10 µM, day 4-5 post-activation): decreased
- 2H transfer from glucose to NADPH ([1]; 10 µM, day 4-5 post-activation, 1-2H-glucose): completely blocked
- fatty acid synthesis ([1]; CD8+ T cells): nearly completely ablated
- time to effects on NADPH labeling and NADP+, NADPH and 6-pg levels ([1]; active CD8+ T cells, 50 µM): ≤ 10 min
- time to restoration of NADPH, NADP+ and 6-pg levels after removing the inhibitor ([1]; active T cells): ≤ 2 h
- absolute oxPPP flux (active CD8+ T cells): blocked
- reactive oxygen species (CD8+ and CD4+ T cells): elevated reactive oxygen species
- macrophage cytokine production ([2]; classically activated macrophages (MΦ-1)): minimally affecting
- NADPH, LPS-induced pro-inflammatory cytokine production, iNOS upregulation ([2]; macrophages): did not decrease
- 6-pg production by recombinant human G6PD (G6PD): demonstrated in vitro inhibition of G6PD activity
